For test [1], the target named is T1, 12-LOX mutant F352L (Homo sapiens, UniProt P18054, F352L).
T1 construct: 6xHis (N); made in house; pFastBac1 shuttle vector
T1 sequence (P18054 1-663 F352L): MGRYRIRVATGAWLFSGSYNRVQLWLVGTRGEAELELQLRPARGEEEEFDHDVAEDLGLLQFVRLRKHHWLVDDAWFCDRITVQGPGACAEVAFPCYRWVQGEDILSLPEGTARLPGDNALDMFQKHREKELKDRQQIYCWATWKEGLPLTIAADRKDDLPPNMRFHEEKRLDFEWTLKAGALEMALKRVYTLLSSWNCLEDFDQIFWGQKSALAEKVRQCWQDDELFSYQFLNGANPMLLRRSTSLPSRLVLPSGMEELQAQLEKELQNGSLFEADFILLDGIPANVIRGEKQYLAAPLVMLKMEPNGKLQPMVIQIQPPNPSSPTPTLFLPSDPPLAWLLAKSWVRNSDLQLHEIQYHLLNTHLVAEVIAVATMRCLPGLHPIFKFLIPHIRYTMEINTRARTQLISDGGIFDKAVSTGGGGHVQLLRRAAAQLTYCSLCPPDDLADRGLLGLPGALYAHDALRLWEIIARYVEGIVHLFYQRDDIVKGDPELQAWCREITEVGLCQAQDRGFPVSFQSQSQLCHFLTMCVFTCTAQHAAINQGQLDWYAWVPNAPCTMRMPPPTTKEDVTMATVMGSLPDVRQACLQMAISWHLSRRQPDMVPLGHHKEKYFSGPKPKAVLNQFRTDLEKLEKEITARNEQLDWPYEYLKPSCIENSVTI
Nature of the test: UV-Vis-based IC50 assay, F352L mutant. Type of test: biochemical. The text has this: (§1) Based on the ML355 binding mode predicted by the modeling, all residues within 5 Å of any atom of ML355 were selected for experimental mutagenesis. The selected residues were replaced with amino acids with either bulkier or smaller side chains in order to determine what specific interactions play a role in inhibitor binding. […] The numbering refers to the UniProt accession number P18054 sequence, with the N-terminal methionine assigned as amino acid number one. The primers for all mutants were designed using the online QuikChange Primer Design tool (http://www.genomics.agilent.com/primerDesignProgram.jsp) from Agilent Technologies (CA, USA). The mutations were introduced by using the QuikChange® II XL site-directed mutagenesis kit from Agilent, following the instructions in the protocol provided. […]
(§2) The wild type 12-LOX (wt-12-LOX) enzyme and its mutants were expressed as fusion proteins, with an N-terminal 6×His tag, and were affinity purified by nickel-iminodiacetic acid agarose using FPLC (Biorad).
(§3) The percent inhibition was determined by comparing the enzyme rates of the control (DMSO solvent) and the inhibitor sample by following the formation of the conjugated diene product at 234 nm (ε=25,000 M^−1cm^−1). […] The substrate concentration was quantitatively determined by allowing the enzymatic reaction to go to completion in the presence of soybean LOX-1. […]

In test [2] the target is T2, 12-LOX mutant L407G/A417I/V418M (Homo sapiens, UniProt P18054, A417I/L407G/V418M).
T2 construct: 6xHis (N); made in house; pFastBac1 shuttle vector
T2 sequence (P18054 1-663 L407G/A417I/V418M): T1 sequence (P18054 1-663 F352L) with L352F, L407G, A417I, V418M
Nature of the test: UV-Vis-based IC50 assay, L407G/A417I/V418M mutant. The format is biochemical.
Text: as §1, §2, §3

SMILES strings stand for the structures. Changes are numbered by the printed parent chain. A value given as a limit tells only on which side of the number the result lay.

Usually IC50 stands for the concentration at which inhibition is half-maximal. A higher IC50 goes with lower potency. In general, inhibition refers to the percentage by which the read-out fell short of the control. For `COc1cccc(CNc2ccc(S(=O)(=O)Nc3nc4c(ccc5ccccc54)s3)cc2)c1O` [Compound LOX-12-001, 4-((2-hydroxy-3-methoxybenzyl)amino)-N-(naphtho[1,2-d]thiazol-2-yl)benzenesulfonamide], the IC50 in test [1] (F352L) is 490 ± 50 nM; in test [2] it was above 150000 nM. In test [1] (F352L vs wt12-LOX), the “fold increase in IC50 compared to wt12-LOX” value is on record as 9.8 fold. Further, the inhibition at 20 µM in test [2] (20 uM inhibitor, read-out: Percent inhibition at 20 uM inhibitor) stood at 10%.

The values are drawn from patent US20240279190A1, “COMPOUNDS FOR MODULATING PLATELET-TYPE 12-(S)-LIPOXYGENASE AND METHODS OF USE FOR SAME” (The Regents of The University of California, priority 2021, published 2024).
